Read-outs that look alike come from different tables or passages of the source.

Data set [1] concerns HIV-IIIb. Nature of the data set: Test A: Antiviral Assay in MT4 Cells. The format is cell-based, HIV-1. The conditions noted are these: for inhibition at 2 µM: 2 μM drug concentration, read-out: Response at 2 μM (percent inhibition of virus-induced cell killing). The method, boiled down: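 MT-4 cells were preinfected with HIV-IIIb […]. Cell viability, as protection from viral cytopathic effect, was read by CellTiter-Glo chemiluminescence.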

The nature of data set [2]: Test B: Cytotoxicity Assay. The format is cell-based. The conditions noted are these: human, uninfected MT-4 cells, CellTiter-Glo. As for the experimental part:
Test B: Cytotoxicity Assay Compound cytotoxicity and the corresponding CC50 values was determined using the same protocol as described in the antiviral assay (Test A) except that uninfected cells were used.

Setting [3] is: Human immunodeficiency virus 1, MT4, 120 h, 0.2 μM drug concentration, MT-4 cells infected with HIV-IIIb, 5 days, values normalized to 100%, average over time, read-out: % inhibition at 0.2 μM (percent inhibition of virus-induced cell killing).
The mark [4] stands for this setting: Human immunodeficiency virus 1, IIIB, MT4, 0.2 μM drug concentration, comparison with previously published compounds, read-out: Response at 0.2 μM (percent inhibition of virus-induced cell killing).
Where [5] appears, read: Human immunodeficiency virus 1, IIIB, MT4, comparison with previously published compounds.

Take `Cn1nc(N)c2cccc(-c3ccc(C#CC4(O)CCC4)nc3[C@H](Cc3cc(F)cc(F)c3)NC(=O)Cn3nc(C(F)(F)F)c4c3C(F)(F)[C@@H]3C[C@H]43)c21` [Compound 25, N—((S)-1-(3-(3-amino-1-methyl-1H-indazol-7-yl)-6-((1-hydroxy-cyclobutyl)ethynyl)pyridin-2-yl)-2-(3,5-difluorophenyl)ethyl)-2-((3bS,4aR)-5,5-difluoro-3-(trifluoromethyl)-3b,4,4a,5-tetrahydro-1H-cyclopropa[3,4]cyclopenta[1,2-c]pyrazol-1-yl)acetamide]: the inhibition at 0.2 µM in data set [1] (setting [3]) turned out to be 91%. Moreover, in data set [2], it took 9.92 µM to reach half-maximal cytotoxicity (CC50 at 5 days).
The matching figures for `CN1CCN(C(C)(C)C#Cc2ccc(-c3ccc(Cl)c4c(NS(C)(=O)=O)nn(C)c34)c([C@H](Cc3cc(F)cc(F)c3)NC(=O)Cn3nc(C(F)(F)F)c4c3C(F)(F)[C@@H]3C[C@H]43)n2)CC1` [Compound 41, N—((S)-1-(3-(4-chloro-1-methyl-3-(methylsulfonamido)-1H-indazol-7-yl)-6-(3-methyl-3-(4-methylpiperazin-1-yl)but-1-yn-1-yl)pyridin-2-yl)-2-(3,5-difluorophenyl)ethyl)-2-((3bS,4aR)-5,5-difluoro-3-(trifluoromethyl)-3b,4,4a,5-tetrahydro-1H-cyclopropa[3,4]cyclopenta[1,2-c]pyrazol-1-yl)acetamide]: 98% and 2.08 µM.
For `Cn1nc(NS(C)(=O)=O)c2cccc(-c3ccc(C#CCN4CCOCC4)nc3[C@H](Cc3cc(F)cc(F)c3)NC(=O)Cn3nc(C(F)(F)F)c4c3C(F)(F)[C@@H]3C[C@H]43)c21` [Compound 34, 2-((3bS,4aR)-5,5-difluoro-3-(trifluoromethyl)-3b,4,4a,5-tetrahydro-1H-cyclopropa[3,4]cyclopenta[1,2-c]pyrazol-1-yl)-N—((S)-2-(3,5-difluorophenyl)-1-(3-(1-methyl-3-(methylsulfonamido)-1H-indazol-7-yl)-6-(3-morpholinoprop-1-yn-1-yl)pyridin-2-yl)ethyl)acetamide], in that order: 87% and 10.2 µM.
Take `Cn1nc(NS(C)(=O)=O)c2c(Cl)ccc(-c3ccc(C#CC4CNCCO4)nc3[C@H](Cc3cc(F)cc(F)c3)NC(=O)Cn3nc(C(F)F)c4c3C(F)(F)[C@@H]3C[C@H]43)c21` (stereo partly drawn) [Compound 68, N-((1S)-1-(3-(4-chloro-1-methyl-3-(methylsulfonamido)-1H-indazol-7-yl)-6-(morpholin-2-ylethynyl)pyridin-2-yl)-2-(3,5-difluorophenyl)ethyl)-2-((3bS,4aR)-3-(difluoromethyl)-5,5-difluoro-3b,4,4a,5-tetrahydro-1H-cyclopropa[3,4]cyclopenta[1,2-c]pyrazol-1-yl)acetamide]: in data set [1] (setting [3]), the inhibition at 0.2 µM was 100%. In data set [2], this compound registered a cytotoxic concentration (CC50) at 5 days of 7.51 µM.
Turning to `CN1CCN(CC#Cc2ccc(-c3ccc(Cl)c4c(NS(C)(=O)=O)nn(C)c34)c([C@H](Cc3cc(F)cc(F)c3)NC(=O)Cn3nc(C(F)(F)F)c4c3C(F)(F)[C@@H]3C[C@H]43)n2)CC1` [Compound 47, N—((S)-1-(3-(4-chloro-1-methyl-3-(methylsulfonamido)-1H-indazol-7-yl)-6-(3-(4-methylpiperazin-1-yl)prop-1-yn-1-yl)pyridin-2-yl)-2-(3,5-difluorophenyl)ethyl)-2-((3bS,4aR)-5,5-difluoro-3-(trifluoromethyl)-3b,4,4a,5-tetrahydro-1H-cyclopropa[3,4]cyclopenta[1,2-c]pyrazol-1-yl)acetamide], in data set [1] (setting [3]), the inhibition at 0.2 µM is 94%. In data set [2], this compound registered a half-maximal cytotoxic concentration (CC50) at 5 days of 7.97 µM.
On to `CC(C)(C)OC(=O)N1CCCC1c1ncc(C#Cc2ccc(-c3ccc4c(c3)C(=O)NC4)c([C@H](Cc3cc(F)cc(F)c3)NC(=O)Cn3nc(C(F)(F)F)c4c3C(F)(F)[C@@H]3C[C@H]43)n2)[nH]1` (stereo partly drawn) [Compound 13C, tert-butyl 2-(5-((6-((S)-1-(2-((3bS,4aR)-5,5-difluoro-3-(trifluoromethyl)-3b,4,4a,5-tetrahydro-1H-cyclopropa[3,4]cyclopenta[1,2-c]pyrazol-1-yl)acetamido)-2-(3,5-difluorophenyl)ethyl)-5-(3-oxoisoindolin-5-yl)pyridin-2-yl)ethynyl)-1H-imidazol-2-yl)pyrrolidine-1-carboxylate], for which the inhibition at 0.2 µM in data set [1] (setting [3]) stood at 87%. In addition, the 50% cytotoxic concentration (CC50) at 5 days in data set [2] is more than 53.2 µM.
Take `Cn1nc(NS(C)(=O)=O)c2c(Cl)ccc(-c3cc(N)c(C#CC4(O)CC(F)(F)C4)nc3[C@H](Cc3cc(F)cc(F)c3)NC(=O)Cn3nc(C(F)(F)F)c4c3C(F)(F)[C@@H]3C[C@H]43)c21` [Compound 100, N—((S)-1-(5-amino-3-(4-chloro-1-methyl-3-(methylsulfonamido)-1H-indazol-7-yl)-6-((3,3-difluoro-1-hydroxycyclobutyl)ethynyl)pyridin-2-yl)-2-(3,5-difluorophenyl)ethyl)-2-((3bS,4aR)-5,5-difluoro-3-(trifluoromethyl)-3b,4,4a,5-tetrahydro-1H-cyclopropa[3,4]cyclopenta[1,2-c]pyrazol-1-yl)acetamide]: the inhibition at 0.2 µM in data set [1] (Human immunodeficiency virus 1, IIIB, MT4, 120 h, read-out: % inhibition at 0.2 μM (percent inhibition of virus-induced cell killing)) was 87%. Further, the cytotoxic concentration (CC50) at 5 days in data set [2] is 8.2 µM.
As for `Cn1nc(NS(C)(=O)=O)c2c(Cl)ccc(-c3ccc(C#CC4(O)CCOCC4)nc3[C@H](Cc3cc(F)cc(F)c3)NC(=O)Cn3nc(C(F)(F)F)c4c3C(F)(F)[C@@H]3C[C@H]43)c21` [Compound 39, N—((S)-1-(3-(4-chloro-1-methyl-3-(methylsulfonamido)-1H-indazol-7-yl)-6-((4-hydroxytetrahydro-2H-pyran-4-yl)ethynyl)pyridin-2-yl)-2-(3,5-difluorophenyl)ethyl)-2-((3bS,4aR)-5,5-difluoro-3-(trifluoromethyl)-3b,4,4a,5-tetrahydro-1H-cyclopropa[3,4]cyclopenta[1,2-c]pyrazol-1-yl)acetamide], the inhibition at 0.2 µM in data set [1] (setting [3]) was found to be 95%. Also, the CC50 at 5 days in data set [2] stood at 10.7 µM.
`Cn1nc(NS(C)(=O)=O)c2cccc(-c3ccc(C#CC4(O)COC4)nc3[C@H](Cc3cc(F)cc(F)c3)NC(=O)Cn3nc(C(F)(F)F)c4c3C(F)(F)[C@@H]3C[C@H]43)c21` [Compound 20E, 2-((3bS,4aR)-5,5-difluoro-3-(trifluoromethyl)-3b,4,4a,5-tetrahydro-1H-cyclopropa[3,4]cyclopenta[1,2-c]pyrazol-1-yl)-N—((S)-2-(3,5-difluorophenyl)-1-(6-((3-hydroxyoxetan-3-yl)ethynyl)-3-(1-methyl-3-(methylsulfonamido)-1H-indazol-7-yl)pyridin-2-yl)ethyl)acetamide]: in data set [1] (setting [3]), the inhibition at 0.2 µM turned out to be 94%. Also, the midpoint of cytotoxicity in data set [2], the CC50 at 5 days, lay at 27.7 µM.
Turning to `Cc1c(-c2ccc(C#CC3(O)COC3)nc2[C@H](Cc2cc(F)cc(F)c2)NC(=O)Cn2nc(C(F)(F)F)c3c2C(F)(F)[C@@H]2C[C@H]32)ccc2n[nH]c(=O)n12` [Compound 21, 2-((3bS,4aR)-5,5-difluoro-3-(trifluoromethyl)-3b,4,4a,5-tetrahydro-1H-cyclopropa[3,4]cyclopenta[1,2-c]pyrazol-1-yl)-N—((S)-2-(3,5-difluorophenyl)-1-(6-((3-hydroxyoxetan-3-yl)ethynyl)-3-(5-methyl-3-oxo-2,3-dihydro-[1,2,4]triazolo[4,3-a]pyridin-6-yl)pyridin-2-yl)ethyl)acetamide], the inhibition at 0.2 µM in data set [1] (setting [3]) stood at 100%. Moreover, half-maximal cytotoxicity in data set [2] (CC50 at 5 days) was put at 11.7 µM.
For `CC(O)(C#Cc1ccc(-c2ccc(F)c(C(N)=O)c2)c([C@H](Cc2cc(F)cc(F)c2)NC(=O)Cn2nc(C(F)(F)F)c3c2C(F)(F)[C@@H]2C[C@H]32)n1)c1ccccc1` (stereo partly drawn) [Compound 17, 5-(2-((S)-1-(2-((3bS,4aR)-5,5-difluoro-3-(trifluoromethyl)-3b,4,4a,5-tetrahydro-1H-cyclopropa[3,4]cyclopenta[1,2-c]pyrazol-1-yl)acetamido)-2-(3,5-difluorophenyl)ethyl)-6-(3-hydroxy-3-phenylbut-1-yn-1-yl)pyridin-3-yl)-2-fluorobenzamide], the inhibition at 0.2 µM in data set [1] (setting [4]) and in data set [1] (setting [3]) was 66% in each case. The inhibition at 2 µM in data set [1] (setting [5]) stood at 73%. Also, the half-maximal cytotoxic concentration (CC50) at 5 days in data set [2] was 3.06 µM.
For the compound `NC(=O)c1cc(-c2ccc(C#CC3(O)CC(F)(F)C3)nc2[C@H](Cc2cc(F)cc(F)c2)NC(=O)Cn2nc(C(F)(F)F)c3c2C(F)(F)[C@@H]2C[C@H]32)ccc1F` [Compound 107, 5-(6-((3,3-difluoro-1-hydroxycyclobutyl)ethynyl)-2-((S)-1-(2-((3bS,4aR)-5,5-difluoro-3-(trifluoromethyl)-3b,4,4a,5-tetrahydro-1H-cyclopropa[3,4]cyclopenta[1,2-c]pyrazol-1-yl)acetamido)-2-(3,5-difluorophenyl)ethyl)pyridin-3-yl)-2-fluorobenzamide], the inhibition at 0.2 µM in data set [1] (setting [4]) and in data set [1] (setting [3]) was 99% each time. Besides, in data set [1] (setting [5]), the inhibition at 2 µM amounted to 99%. Besides, in data set [2], the CC50 at 5 days stood at 3.64 µM.
`Cn1nc(NS(C)(=O)=O)c2c(Cl)ccc(-c3ccc(C#CC4(O)COC4)nc3[C@H](Cc3cc(F)cc(F)c3)NC(=O)Cn3nc(C(F)(F)F)c4c3C(F)(F)[C@@H]3C[C@H]43)c21` [Compound 38, N—((S)-1-(3-(4-chloro-1-methyl-3-(methylsulfonamido)-1H-indazol-7-yl)-6-((3-hydroxyoxetan-3-yl)ethynyl)pyridin-2-yl)-2-(3,5-difluorophenyl)ethyl)-2-((3bS,4aR)-5,5-difluoro-3-(trifluoromethyl)-3b,4,4a,5-tetrahydro-1H-cyclopropa[3,4]cyclopenta[1,2-c]pyrazol-1-yl)acetamide]: in data set [1] (setting [3]), the inhibition at 0.2 µM came to 97%. The compound also had a CC50 at 5 days in data set [2] of 14.3 µM.

The values are drawn from patent US9873680B2 (Gilead Sciences, Inc., priority 2014, dated 2018).
